# Where two headings read alike, the source gives them in different places.
# Target: recombinant Mcl-1 (residues 172-327) (Homo sapiens (Human), UniProt Q07820)
# Test: Fluorescence polarization anisotropy competition assay (FITC-Bak or FITC-Bim BH3 peptide) with Mcl-1
# Format: binding
# Settings: Table 2, FITC-Bak or FITC-Bim peptide competition, Ki converted from IC50, read-out: Ki for Inhibition of Mcl-1
# Chain of recombinant Mcl-1 (residues 172-327) (Q07820 172-327): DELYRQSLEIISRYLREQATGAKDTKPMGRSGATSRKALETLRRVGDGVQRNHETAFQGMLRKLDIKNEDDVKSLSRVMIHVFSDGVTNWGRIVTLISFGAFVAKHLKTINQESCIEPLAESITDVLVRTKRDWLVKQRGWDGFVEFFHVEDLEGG
SMILES,Ki (Ki bins given in nM),Ki (Ki bins given in μM)
"Cc1cc(OCCCc2c(C(=O)NCCC(=O)NS(=O)(=O)c3ccc([N+](=O)[O-])cc3)[nH]c3c(-c4c(C)n[nH]c4C)cccc23)cc(C)c1Cl [I-24, 3-(3-(4-chloro-3,5-dimethylphenoxy)propyl)-7-(3,5-dimethyl-1H-pyrazol-4-yl)-N-(3-((4-nitrophenyl)sulfonamido)-3-oxopropyl)-1H-indole-2-carboxamide]",101 to 299 nM,–
"Cc1cc(OCCCc2c(C(=O)NCc3cccc(OC(F)(F)F)c3)[nH]c3c(-c4c(C)nn(C)c4C)cccc23)cc(C)c1Cl [I-264, 3-(3-(4-chloro-3,5-dimethylphenoxy)propyl)-N-(3-(trifluoromethoxy)benzyl)-7-(1,3,5-trimethyl-1H-pyrazol-4-yl)-1H-indole-2-carboxamide]",–,1000 to 9990 nM
"Cc1cc(OCCCc2c3n(c4c(-c5c(C)nn(C)c5C)c(Cl)ccc24)CCCN(Cc2cc(OCCCC(C)C)cc(C(=O)O)c2)C3=O)cc(C)c1Cl [I-301, 3-((8-chloro-11-(3-(4-chloro-3,5-dimethylphenoxy)propyl)-1-oxo-7-(1,3,5-trimethyl-1H-pyrazol-4-yl)-4,5-dihydro-1H-[1,4]diazepino[1,2-a]indol-2(3H)-yl)methyl)-5-((4-methylpentyl)oxy)benzoic acid]",< 50 nM,–
"CCOC(=O)c1ccc(CNC(=O)c2c(CCCOc3cc(C)c(Cl)c(C)c3)c3cccc(-c4c(C)nn(C)c4C)c3n2C)o1 [I-65, ethyl 5-((3-(3-(4-chloro-3,5-dimethylphenoxy)propyl)-1-methyl-7-(1,3,5-trimethyl-1H-pyrazol-4-yl)-1H-indole-2-carboxamido)methyl)furan-2-carboxylate]",301 to 500 nM,–
"Cc1cc(OCCCc2c3n(c4c(-c5c(C)nn(C)c5C)c(Cl)ccc24)CCN(c2ccc(C(=O)O)cc2)C3=O)cc(C)c1Cl [I-176, 4-(7-chloro-10-(3-(4-chloro-3,5-dimethylphenoxy)propyl)-1-oxo-6-(1,3,5-trimethyl-1H-pyrazol-4-yl)-3,4-dihydropyrazino[1,2-a]indol-2(1H)-yl)benzoic acid]",< 50 nM,–
"CCn1ccc2c(N3CCCn4c(c(CCCOc5cc(C)c(Cl)c(C)c5)c5ccc(Cl)c(-c6c(C)nn(C)c6C)c54)C3=O)cc(C(=O)O)cc21 [I-249, 4-(8-chloro-11-(3-(4-chloro-3,5-dimethylphenoxy)propyl)-1-oxo-7-(1,3,5-trimethyl-1H-pyrazol-4-yl)-4,5-dihydro-1H-[1,4]diazepino[1,2-a]indol-2(3H)-yl)-1-ethyl-1H-indole-6-carboxylic acid]",< 50 nM,–
"Cc1cc(OCCCc2c(C(=O)NCc3cccc(C(=O)O)c3)n(CCN3CCOCC3)c3c(-c4c(C)nn(C)c4C)c(Cl)ccc23)cc(C)c1Cl [I-372, 3-((6-chloro-3-(3-(4-chloro-3,5-dimethylphenoxy)propyl)-1-(2-morpholinoethyl)-7-(1,3,5-trimethyl-1H-pyrazol-4-yl)-1H-indole-2-carboxamido)methyl)benzoic acid]",< 50 nM,–
"Cc1cc(OCCCc2c(C(=O)Nc3ccc(C(=O)O)nc3)[nH]c3c(-c4c(C)nn(C)c4C)c(Cl)ccc23)cc(C)c1Cl [I-185, 5-(6-chloro-3-(3-(4-chloro-3,5-dimethylphenoxy)propyl)-7-(1,3,5-trimethyl-1H-pyrazol-4-yl)-1H-indole-2-carboxamido)picolinic acid]",< 50 nM,–
"Cc1cc(OCCCc2c(C(=O)NCCS(=O)(=O)NC(=O)CC34CC5CC(CC(C5)C3)C4)[nH]c3ccccc23)cc(C)c1Cl [I-54, N-(2-(N-(2-((3r,5r,7r)-adamantan-1-yl)acetyl)sulfamoyl)ethyl)-3-(3-(4-chloro-3,5-dimethylphenoxy)propyl)-1H-indole-2-carboxamide]",501 to 999 nM,–
"Cc1cc(OCCCc2c(C(=O)N3CCC(NC(=O)c4cccc(Oc5ccccc5)c4)CC3)[nH]c3ccccc23)cc(C)c1Cl [I-259, N-(1-(3-(3-(4-chloro-3,5-dimethylphenoxy)propyl)-1H-indole-2-carbonyl)piperidin-4-yl)-3-phenoxybenzamide]",–,1000 to 9990 nM
"Cc1cc(OCCCc2c3n(c4c(-c5c(C)nn(C)c5C)c(Cl)ccc24)[C@@H](C)CN(Cc2cccc(C(=O)O)c2)C3=O)cc(C)c1Cl [I-151, (S)-3-((7-chloro-10-(3-(4-chloro-3,5-dimethylphenoxy)propyl)-4-methyl-1-oxo-6-(1,3,5-trimethyl-1H-pyrazol-4-yl)-3,4-dihydropyrazino[1,2-a]indol-2(1H)-yl)methyl)benzoic acid]",< 50 nM,–
"Cc1cc(OCCCc2c3n(c4c(-c5c(C)nn(C)c5C)c(Cl)ccc24)CCCN(Cc2cc(C(=O)O)cc(Cl)n2)C3=O)cc(C)c1Cl [I-298, 2-chloro-6-((8-chloro-1-(3-(4-chloro-3,5-dimethylphenoxy)propyl)-1-oxo-7-(1,3,5-trimethyl-1H-pyrazol-4-yl)-4,5-dihydro-1H-[1,4]diazepino[1,2-a]indol-2(3H)-yl)methyl)isonicotinic acid]",< 50 nM,–
"Cc1cc(OCCCc2c3n(c4c(-c5c(C)nn(C)c5C)c(Cl)ccc24)CCCN(c2ccc(CC(=O)O)cc2)C3=O)cc(C)c1Cl [I-237, 2-(4-(8-chloro-11-(3-(4-chloro-3,5-dimethylphenoxy)propyl)-1-oxo-7-(1,3,5-trimethyl-1H-pyrazol-4-yl)-4,5-dihydro-H-[1,4]diazepino[1,2-a]indol-2(3H)-yl)phenyl)acetic acid]",< 50 nM,–
"Cc1cc(OCCCc2c(C(=O)N3CCN(c4ccc(C(=O)O)cn4)CC3)[nH]c3c(-c4c(C)nn(C)c4C)c(Cl)ccc23)cc(C)c1Cl [I-344, 6-(4-(6-chloro-3-(3-(4-chloro-3,5-dimethylphenoxy)propyl)-7-(1,3,5-trimethyl-1H-pyrazol-4-yl)-1H-indole-2-carbonyl)piperazin-1-yl)nicotinic acid]",< 50 nM,–
"Cc1cc(OCCCc2c3n(c4c(-c5c(C)nn(C)c5C)c(Cl)ccc24)CCC(C)N(Cc2cccc(C(=O)O)c2)C3=O)cc(C)c1Cl (stereo not shown) [I-125, 3-((8-chloro-11-(3-(4-chloro-3,5-dimethylphenoxy)propyl)-3-methyl-1-oxo-7-(1,3,5-trimethyl-1H-pyrazol-4-yl)-4,5-dihydro-1H-[1,4]diazepino[1,2-a]indol-2(3H)-yl)methyl)benzoic acid]",< 50 nM,–
"Cc1cc(OCCCc2c(C(=O)Nc3ccc(C#N)cc3)[nH]c3c(-c4c(C)nn(C)c4C)c(Cl)ccc23)cc(C)c1Cl [I-355, 6-chloro-3-(3-(4-chloro-3,5-dimethylphenoxy)propyl)-N-(4-cyanophenyl)-7-(1,3,5-trimethyl-1H-pyrazol-4-yl)-1H-indole-2-carboxamide]",51 to 100 nM,–
"Cc1cc(OCCCc2c(C(=O)N3CCN(c4ccc(C(=O)O)cc4)CC3)n(C)c3c(-c4c(C)nn(C)c4C)c(Cl)ccc23)cc(C)c1Cl [I-339, 4-(4-(6-chloro-3-(3-(4-chloro-3,5-dimethylphenoxy)propyl)-1-methyl-7-(1,3,5-trimethyl-1H-pyrazol-4-yl)-1H-indole-2-carbonyl)piperazin-1-yl)benzoic acid]",< 50 nM,–
"Cc1cc(CN2CCCn3c(c(CCCOc4cc(C)c(Cl)c(C)c4)c4ccc(Cl)c(-c5c(C)nn(C)c5C)c43)C2=O)cc(C(=O)O)c1 [I-297, 3-((8-chloro-11-(3-(4-chloro-3,5-dimethylphenoxy)propyl)-1-oxo-7-(1,3,5-trimethyl-1H-pyrazol-4-yl)-4,5-dihydro-1H-[1,4]diazepino[1,2-a]indol-2(3H)-yl)methyl)-5-methylbenzoic acid]",51 to 100 nM,–
"Cc1cc(OCCCc2c3n(c4c(-c5c(C)nn(C)c5C)c(Cl)ccc24)CCNC3=O)cc(C)c1Cl [I-117, 7-chloro-10-(3-(4-chloro-3,5-dimethylphenoxy)propyl)-6-(1,3,5-trimethyl-1H-pyrazol-4-yl)-3,4-dihydropyrazino[1,2-a]indol-1(2H)-one]",< 50 nM,–
"Cc1cc(OCCCc2c(C(=O)NCCc3c(C)n(C)c4ccccc34)[nH]c3ccccc23)cc(C)c1Cl [I-44, 3-(3-(4-chloro-3,5-dimethylphenoxy)propyl)-N-(2-(1,2-dimethyl-1H-indol-3-yl)ethyl)-1H-indole-2-carboxamide]",–,1000 to 9990 nM
"Cc1cc(OCCCc2c3n(c4c(-c5c(C)nn(C)c5C)c(Cl)ccc24)CCCN(c2cc(C(=O)O)cc(N4CCN(C)CC4)c2)C3=O)cc(C)c1Cl [I-219, 3-(8-chloro-11-(3-(4-chloro-3,5-dimethylphenoxy)propyl)-1-oxo-7-(1,3,5-trimethyl-1H-pyrazol-4-yl)-4,5-dihydro-1H-[1,4]diazepino[1,2-a]indol-2(3H)-yl)-5-(4-methylpiperazin-1-yl)benzoic acid]",< 50 nM,–
"COC(=O)[C@H](CC(C)C)NC(=O)CNC(=O)c1[nH]c2c(-c3c(C)nn(C)c3C)cccc2c1CCCOc1cc(C)c(Cl)c(C)c1 [I-289, methyl (3-(3-(4-chloro-3,5-dimethylphenoxy)propyl)-7-(1,3,5-trimethyl-1H-pyrazol-4-yl)-1H-indole-2-carbonyl)glycyl-L-leucinate]",–,10000 to 50000 nM
"Cc1cc(OCCCc2c(C(=O)NCc3cc(C(=O)O)n(Cc4ccccc4)c3)[nH]c3c(-c4c(C)nn(C)c4C)cccc23)cc(C)c1Cl [I-75, 1-benzyl-4-((3-(3-(4-chloro-3,5-dimethylphenoxy)propyl)-7-(1,3,5-trimethyl-1H-pyrazol-4-yl)-1H-indole-2-carboxamido)methyl)-1H-pyrrole-2-carboxylic acid]",51 to 100 nM,–
"Cc1cc(OCCCc2c(C(=O)NCC(=O)NS(=O)(=O)c3ccccc3)[nH]c3ccccc23)cc(C)c1Cl [I-5, 3-(3-(4-chloro-3,5-dimethylphenoxy)propyl)-N-(2-oxo-2-(phenylsulfonamido)ethyl)-1H-indole-2-carboxamide]",101 to 299 nM,–
"CC/N=C(/NCCCN(C)C)n1nc(C)c(-c2cccc3c(CCCOc4cc(C)c(Cl)c(C)c4)c(C(=O)NCc4cccc(C(=O)O)c4)[nH]c23)c1C [I-70, 3-((3-(3-(4-chloro-3,5-dimethylphenoxy)propyl)-7-(1-(N-(3-(dimethylamino)propyl)-N′-ethylcarbamimidoyl)-3,5-dimethyl-1H-pyrazol-4-yl)-1H-indole-2-carboxamido)methyl)benzoic acid]",51 to 100 nM,–

# Source: US10533010B2, “Substituted indole Mcl-1 inhibitors” (Vanderbilt University, priority 2014, dated 2020)
